The source of these data is patent US20090011051A1, “Methods, Compositions and Articles of Manufacture for HIF Modulating Compounds” (priority 2006, published 2009).

The conditions of data set [1]: extreme levels (500 ppm), followed by recovery; cited from earlier work.
The subject of data set [2] is rats. As to conditions: moderate levels, cited from earlier work.
Data set [3] concerns rats. As to conditions: cited from earlier work.
Data set [4] has as its system rodents. Conditions: H2S gas; cited from earlier work.
Data set [5] deals with nematodes (Caenorhabditis elegans). The experiment in a line: Survival of C. elegans in H2S after pre-treatment with H2S gas (Example 2). Conditions: air plus 200 ppm H2S. It is filed as in vivo.
For data set [6] the test system is unchanged. As for the experimental part: Nematodes of each strain in the fourth larval stage were moved onto fresh nematode growth plates. […] The nematodes were removed the next morning and the percent surviving nematodes was determined.
Data set [7] has as its system humans. Conditions: H2S gas; cited from earlier work.
Data set [8] has as its system humans. As to conditions: chronic low-level exposure; cited from earlier work.
The subject of data set [9] is humans. As to conditions: cited from earlier work.

Each structure is given as a SMILES string. Like-named read-outs stand apart in the source and are kept apart here.

`S` [Compound H2S, Hydrogen sulfide]: the “effect of acute exposure (knockdown effect)” value in [1] was “sudden collapse and unconsciousness”. The discriminated avoidance responses result in data set [2] (immediately after the end of the exposure) is “inhibits discriminated avoidance responses”. For the same compound, in [2], the “learning of baited radial arm maze task” value was “interferes with the ability of rats to learn a baited radial arm maze task”. In addition, in data set [3] (perinatal study, 80 ppm), the “neuropathology and behavior of exposed rat pups” value is reported as “no neuropathological effects or altered motor activity, passive avoidance, or acoustic startle response”. Further, the “cerebellar Purkinje cell morphology” value in [3] (rats, 20 or 50 ppm, 7 hours per day from gestation through post-natal day 21) is listed as “longer dendritic branches with reduced aborization of cerebellar Purkinje cells”. In addition, the LD50 entry in data set [4] and in [7] was “approximately 700 ppm” each time. The percent surviving nematodes entry in data set [5] (Egl-9 mutant nematodes) is recorded as “survived”; in data set [5] (wild type nematodes raised in air), “unable to survive”; in [6] (nematodes lacking the Egl-9 gene, air plus 100 ppm H2S, in contrast to wild type), “survived”; in data set [6] (nematodes lacking the Hif-1 gene, fourth larval stage, air plus 20 ppm H2S, removed next morning) it was “unable to survive”; in data set [6] (wild type nematodes, fourth larval stage, air plus 20 ppm H2S, removed next morning), “able to survive”. The “effects of chronic exposure” value in data set [8] was “persistent impairments in balance and memory, as well as altered sensory motor functions”.
For `[C-]#[O+]` [carbon monoxide, Carbon monoxide], the symptoms entry in data set [9] (50 ppm, humans) is listed as “no symptoms”; in data set [9] (200 ppm, within two-three hours) it was “slight headache”; in data set [9] (400 ppm, within one to two hours, may become widespread within three hours), “frontal headache”; in data set [9] (800 ppm, within 45 minutes), “dizziness, nausea, and/or convulsions”; in [9] (800 ppm, within two hours) it was “insensible”. For the same compound, in data set [9] (around 1000 ppm, an organism, exposure for more than around 1-2 minutes), the lethality result is on record as “can expire”.
